Measurements taken from patent US20080194585A1, “Fungicidal Pyrazine Derivatives” (priority 2005, published 2008).
Marks after values point to notes of the source that are not given here.

What was measured:
Phytophthora infestans = assay: whole plant or invertebrate; assay type: in vivo; settings: for Test F disease control rating: 100 = 100% disease control
Rhizoctonia oryzae = assay: Test G: turf brown patch, preventive spray on creeping bent grass seedlings; settings: 100 = 100% disease control, 0 = no control; for Test G disease control rating: 40 ppm (marked *)
Description: (the causal agent of turf brown patch) and incubated in a saturated atmosphere at 27° C. for 24 h, and then moved to a growth chamber at 27° C. for 5 days, after which disease ratings were made.

Septoria nodorum = assay: Test H: wheat glum blotch, preventive spray on wheat seedlings; settings: 100 = 100% disease control, 0 = no control
Description: (the causal agent of wheat glum blotch) and incubated in a saturated atmosphere at 20° C. for 48 h, and then moved to a growth chamber at 22° C. for 5 days, after which disease ratings were made.

Plasmopara viticola = assay: Test D: grape downy mildew, spray after inoculation of grape seedlings; assay type: in vivo; settings: 100 = 100% disease control
Text: Upon removal, disease ratings were made. […] A dash (-) indicates no test results.

[1] = tested on: Colletotrichum orbiculare; assay: Test B: cucumber Colletotrichum anthracnose, preventive spray on cucumber seedlings; settings: 100 = 100% disease control, 0 = no control; for Test B disease control rating: 40 ppm (marked *)
Pythium aphanidermatum = assay: Test A: bluegrass pythium blight, preventive spray on bluegrass seedlings; settings: for Test A disease control rating: 100 = 100% disease control
Septoria tritici = assay: Test J: wheat leaf blotch, preventive spray on wheat seedlings; assay type: in vivo; settings: 100 = 100% disease control, 0 = no control; for Test J disease control rating: 40 ppm (marked *)
Text: A dash (-) indicates no test results.

[2] = tested on: Puccinia recondita f. sp. tritici; assay: Test K: wheat leaf rust, preventive spray on wheat seedlings; settings: for Test K disease control rating: 40 ppm (marked *), 100 = 100% disease control, 0 = no control
fusarium graminearium = assay: Test I: wheat head scab, preventive spray on wheat seedlings; settings: 100 = 100% disease control
Description: (the causal agent of wheat head scab) and incubated in a saturated atmosphere at 20° C. for 72 h, and then moved to a growth chamber at 22° C. for 5 days, after which disease ratings were made.

[3] = tested on: Erysiphe graminis f. sp. tritici; assay: Test L: wheat powdery mildew, preventive spray on wheat seedlings; settings: 100 = 100% disease control, 0 = no control; for Test L disease control rating: 40 ppm (marked *)
Botrytis cinerea = assay: Test E: tomato botrytis, preventive spray on tomato seedlings; settings: 40 ppm (marked *); 100 = 100% disease control, 0 = no control
[4] = 40 ppm (marked *), 0 = no control
[5] = 200 ppm, 0 = no control relative to controls

## CC(C)Cn1c(-c2c(F)cccc2F)cnc(-n2cccn2)c1=O [Compound 342, 6-(2,6-Difluorophenyl)-1-(2-methylpropyl)-3-(1H-pyrazol-1-yl)-2(1H)-pyrazinone]
Phytophthora infestans; Phytophthora infestans, in Solanum lycopersicum, topical, 144 h, read-out: Test F disease control rating
  pest or weed control at 200 ppm: 0%
Rhizoctonia oryzae; Waitea circinata, in Agrostis stolonifera, topical, 144 h, read-out: Test G disease control rating, 200 ppm
  pest or weed control at 200 ppm: 95%
Septoria nodorum; Parastagonospora nodorum, in Triticum aestivum, topical, 168 h, read-out: Test H disease control rating, 200 ppm
  pest or weed control at 200 ppm: 0%
Plasmopara viticola; Plasmopara viticola, 168 h, 200 ppm, 0 = no control, read-out: Test D disease control rating
  pest or weed control at 200 ppm: 0%
[1]; Colletotrichum orbiculare, in Cucumis sativus, 144 h, read-out: Test B disease control rating, 200 ppm
  pest or weed control at 200 ppm: 0%
Pythium aphanidermatum; Pythium aphanidermatum, 120 h, read-out: Test A disease control rating
  pest or weed control at 200 ppm: 0%
Septoria tritici; Zymoseptoria tritici, 528 h, 200 ppm, read-out: Test J disease control rating
  pest or weed control at 200 ppm: 82%
[2]; Puccinia recondita, in Triticum aestivum, 192 h, read-out: Test K disease control rating
  pest or weed control at 200 ppm: 98%
Fusarium graminearium; Fusarium, in Triticum aestivum, topical, 192 h, read-out: Test I disease control rating, 200 ppm, 0 = no control
  pest or weed control at 200 ppm: 0%
[3]; Blumeria graminis, in Triticum aestivum, 168 h, read-out: Test L disease control rating, 200 ppm
  pest or weed control at 200 ppm: 96%

## O=c1c(-n2cccn2)nc(Cl)c(-c2c(F)cccc2F)n1Cc1ccccc1F [compound 330]
Phytophthora infestans; [4]
  Test F disease control rating: 0* %
Rhizoctonia oryzae
  Test G disease control rating: 41* %
Septoria nodorum; 40 ppm (marked *)
  Test H disease control rating: 99* %
Plasmopara viticola; [4]
  Test D disease control rating: 0* %
[1]
  Test B disease control rating: 0* %
Pythium aphanidermatum; [4]
  Test A disease control rating: 0* %
Septoria tritici
  Test J disease control rating: 100* %
[2]
  Test K disease control rating: 100* %
Fusarium graminearium; [4]
  Test I disease control rating: 0* %
[3]
  Test L disease control rating: 71* %

## Cc1ccn(-c2nc(Cl)c(-c3c(F)cccc3F)n(Cc3ccc(F)cc3)c2=O)n1 [compound 331]
Phytophthora infestans; [4]
  Test F disease control rating: 0* %
Rhizoctonia oryzae
  Test G disease control rating: 16* %
Septoria nodorum; 40 ppm (marked *)
  Test H disease control rating: 100* %
Plasmopara viticola; [4]
  Test D disease control rating: 47* %
[1]
  Test B disease control rating: 90* %
Pythium aphanidermatum; [4]
  Test A disease control rating: 0* %
Septoria tritici
  Test J disease control rating: 100* %
[2]
  Test K disease control rating: 100* %
Fusarium graminearium; [4]
  Test I disease control rating: 0* %
[3]
  Test L disease control rating: 76* %

## Cc1ccc(-n2c(-c3c(F)cccc3F)c(Cl)nc(-n3ccc(C)n3)c2=O)cc1 [compound 332]
Phytophthora infestans; [4]
  Test F disease control rating: 0* %
Rhizoctonia oryzae
  Test G disease control rating: 0* %
Septoria nodorum; 40 ppm (marked *)
  Test H disease control rating: 94* %
Plasmopara viticola; [4]
  Test D disease control rating: 24* %
[1]
  Test B disease control rating: 0* %
Pythium aphanidermatum; [4]
  Test A disease control rating: 0* %
Septoria tritici
  Test J disease control rating: 98* %
[2]
  Test K disease control rating: 95* %
Fusarium graminearium; [4]
  Test I disease control rating: 0* %
[3]
  Test L disease control rating: 71* %

## Cc1ccc(-n2c(-c3c(F)cccc3F)c(Cl)nc(-n3cccn3)c2=O)cc1 [compound 333]
Phytophthora infestans; [4]
  Test F disease control rating: 0* %
Rhizoctonia oryzae
  Test G disease control rating: 17* %
Septoria nodorum; 40 ppm (marked *)
  Test H disease control rating: 99* %
Plasmopara viticola; [4]
  Test D disease control rating: 47* %
[1]
  Test B disease control rating: 37* %
Pythium aphanidermatum; [4]
  Test A disease control rating: 0* %
Septoria tritici
  Test J disease control rating: 98* %
[2]
  Test K disease control rating: 99* %
Fusarium graminearium; [4]
  Test I disease control rating: 0* %
[3]
  Test L disease control rating: 0* %

## Cc1ccc(-n2c(-c3c(F)cccc3F)c(Cl)nc(-n3cccn3)c2=O)c(C)c1 [compound 334]
Phytophthora infestans; [4]
  Test F disease control rating: 0* %
Rhizoctonia oryzae
  Test G disease control rating: 0* %
Septoria nodorum; 200 ppm
  Test H disease control rating: 0%
Plasmopara viticola; [4]
  Test D disease control rating: 0* %
[1]
  Test B disease control rating: 0* %
Pythium aphanidermatum; [4]
  Test A disease control rating: 0* %
Septoria tritici
  Test J disease control rating: 96* %
[2]
  Test K disease control rating: 91* %
Fusarium graminearium; [4]
  Test I disease control rating: 0* %
[3]
  Test L disease control rating: 0* %

## Cc1ccc(-n2c(-c3c(F)cccc3F)c(Cl)nc(-n3ccc(C)n3)c2=O)c(C)c1 [compound 335]
Phytophthora infestans; [4]
  Test F disease control rating: 0* %
Rhizoctonia oryzae
  Test G disease control rating: 0* %
Septoria nodorum; 40 ppm (marked *)
  Test H disease control rating: 98* %
Plasmopara viticola; [4]
  Test D disease control rating: 0* %
[1]
  Test B disease control rating: 0* %
Pythium aphanidermatum; [4]
  Test A disease control rating: 0* %
Septoria tritici
  Test J disease control rating: 99* %
[2]
  Test K disease control rating: 91* %
Fusarium graminearium; [4]
  Test I disease control rating: 0* %
[3]
  Test L disease control rating: 71* %

## O=c1c(-n2cccn2)nc(Cl)c(-c2c(F)cccc2F)n1-c1cccc(F)c1 [compound 337]
Phytophthora infestans; [4]
  Test F disease control rating: 0* %
Rhizoctonia oryzae
  Test G disease control rating: 29* %
Septoria nodorum; 40 ppm (marked *)
  Test H disease control rating: 99* %
Plasmopara viticola; [4]
  Test D disease control rating: 0* %
[1]
  Test B disease control rating: 76* %
Pythium aphanidermatum; [4]
  Test A disease control rating: 0* %
Septoria tritici
  Test J disease control rating: 100* %
[2]
  Test K disease control rating: 95* %
Fusarium graminearium; [4]
  Test I disease control rating: 0* %
[3]
  Test L disease control rating: 0* %

## Cc1ccn(-c2nc(Cl)c(-c3c(F)cccc3F)n(-c3cccc(F)c3)c2=O)n1 [compound 338]
Phytophthora infestans; [4]
  Test F disease control rating: 0* %
Rhizoctonia oryzae
  Test G disease control rating: 16* %
Septoria nodorum; 40 ppm (marked *)
  Test H disease control rating: 100* %
Plasmopara viticola; [4]
  Test D disease control rating: 0* %
[1]
  Test B disease control rating: 80* %
Pythium aphanidermatum; [4]
  Test A disease control rating: 0* %
Septoria tritici
  Test J disease control rating: 98* %
[2]
  Test K disease control rating: 99* %
Fusarium graminearium; [4]
  Test I disease control rating: 0* %
[3]
  Test L disease control rating: 0* %

## O=c1c(-n2cccn2)nc(Cl)c(-c2c(F)cccc2F)n1-c1ccccc1F [compound 339]
Phytophthora infestans; [4]
  Test F disease control rating: 0* %
Rhizoctonia oryzae
  Test G disease control rating: 0* %
Septoria nodorum; 40 ppm (marked *)
  Test H disease control rating: 99* %
Plasmopara viticola; [4]
  Test D disease control rating: 0* %
[1]
  Test B disease control rating: 0* %
Pythium aphanidermatum; [4]
  Test A disease control rating: 0* %
Septoria tritici
  Test J disease control rating: 100* %
[2]
  Test K disease control rating: 89* %
Fusarium graminearium; [4]
  Test I disease control rating: 0* %
[3]
  Test L disease control rating: 0* %

## Cc1ccn(-c2nc(Cl)c(-c3c(F)cccc3F)n(-c3ccccc3F)c2=O)n1 [compound 340]
Phytophthora infestans; [4]
  Test F disease control rating: 0* %
Rhizoctonia oryzae
  Test G disease control rating: 0* %
Septoria nodorum; 40 ppm (marked *)
  Test H disease control rating: 99* %
Plasmopara viticola; [4]
  Test D disease control rating: 0* %
[1]
  Test B disease control rating: 0* %
Pythium aphanidermatum; [4]
  Test A disease control rating: 0* %
Septoria tritici
  Test J disease control rating: 95* %
[2]
  Test K disease control rating: 95* %
Fusarium graminearium; [4]
  Test I disease control rating: 0* %
[3]
  Test L disease control rating: 0* %

## Cc1ccn(-c2nc(Cl)c(-c3c(F)cccc3F)n(Cc3ccc(F)cc3)c2=O)n1 [compound 341]
Phytophthora infestans; [4]
  Test F disease control rating: 0* %
Rhizoctonia oryzae
  Test G disease control rating: 0* %
Septoria nodorum; 40 ppm (marked *)
  Test H disease control rating: 99* %
Plasmopara viticola; [4]
  Test D disease control rating: 79* %
[1]
  Test B disease control rating: 52* %
Pythium aphanidermatum; [4]
  Test A disease control rating: 0* %
Septoria tritici
  Test J disease control rating: 98* %
[2]
  Test K disease control rating: 100* %
Fusarium graminearium; [4]
  Test I disease control rating: 0* %
[3]
  Test L disease control rating: 63* %

## COc1ccccc1-n1c(-c2c(F)cccc2F)c(Cl)nc(-n2cccn2)c1=O [compound 393]
Phytophthora infestans; [5]
  Test F disease control rating: 0%
Rhizoctonia oryzae
  Test G disease control rating: 0* %
Septoria nodorum; 40 ppm (marked *)
  Test H disease control rating: 73* %
Botrytis cinerea
  Test E disease control rating: 29* %
[1]
  Test B disease control rating: 41* %
Pythium aphanidermatum; [5]
  Test A disease control rating: 0%
Septoria tritici
  Test J disease control rating: 33* %
[2]
  Test K disease control rating: 89* %
Fusarium graminearium; [5]
  Test I disease control rating: 0%
[3]
  Test L disease control rating: 0* %

## COc1cccc(-n2c(-c3c(F)cccc3F)c(Cl)nc(-n3cccn3)c2=O)c1 [compound 394]
Phytophthora infestans; [5]
  Test F disease control rating: 0%
Rhizoctonia oryzae
  Test G disease control rating: 47* %
Septoria nodorum; 40 ppm (marked *)
  Test H disease control rating: 100* %
Botrytis cinerea
  Test E disease control rating: 99* %
[1]
  Test B disease control rating: 99* %
Pythium aphanidermatum; [5]
  Test A disease control rating: 0%
Septoria tritici
  Test J disease control rating: 100* %
[2]
  Test K disease control rating: 100* %
Fusarium graminearium; [5]
  Test I disease control rating: 78%
[3]
  Test L disease control rating: 99* %

## CCCn1c(-c2c(F)cc(F)cc2F)c(Cl)nc(C(N)=O)c1=O [compound 413]
Phytophthora infestans; [5]
  Test F disease control rating: 95%
Rhizoctonia oryzae
  Test G disease control rating: 0* %
Septoria nodorum; 40 ppm (marked *)
  Test H disease control rating: 99* %
Botrytis cinerea
  Test E disease control rating: 99* %
Plasmopara viticola; [5]
  Test D disease control rating: 64%
[1]
  Test B disease control rating: 0* %
Pythium aphanidermatum; [5]
  Test A disease control rating: 68%
Septoria tritici
  Test J disease control rating: 93* %
Fusarium graminearium; [5]
  Test I disease control rating: 0%
[3]
  Test L disease control rating: 98* %

## CCC(C)Cn1c(-c2c(F)cc(F)cc2F)c(Cl)nc(C(N)=O)c1=O (stereo not shown) [compound 415]
Phytophthora infestans; [5]
  Test F disease control rating: 99%
Rhizoctonia oryzae
  Test G disease control rating: 0* %
Septoria nodorum; 40 ppm (marked *)
  Test H disease control rating: 100* %
Botrytis cinerea
  Test E disease control rating: 99* %
Plasmopara viticola; [5]
  Test D disease control rating: 95%
[1]
  Test B disease control rating: 91* %
Pythium aphanidermatum; [5]
  Test A disease control rating: 86%
Septoria tritici
  Test J disease control rating: 95* %
Fusarium graminearium; [5]
  Test I disease control rating: 0%
[3]
  Test L disease control rating: 99* %
